# Experimental data: patent publication US8921376B2, “Pyrrolopyridines useful as inhibitors of protein kinase” (Vertex Pharmaceuticals Incorporated, priority 2005, dated 2014)
# Columns and labels:
# Type in all cases: biochemical
# Conditions in all cases: Table 6; enzyme inhibition data (Ki)
# [1] = biological target: T1, JAK3 (Homo sapiens, UniProt P52333); assay: JAK3 inhibition assay (33P incorporation into poly(Glu)4Tyr)
# T1 sequence (P52333 1-1124): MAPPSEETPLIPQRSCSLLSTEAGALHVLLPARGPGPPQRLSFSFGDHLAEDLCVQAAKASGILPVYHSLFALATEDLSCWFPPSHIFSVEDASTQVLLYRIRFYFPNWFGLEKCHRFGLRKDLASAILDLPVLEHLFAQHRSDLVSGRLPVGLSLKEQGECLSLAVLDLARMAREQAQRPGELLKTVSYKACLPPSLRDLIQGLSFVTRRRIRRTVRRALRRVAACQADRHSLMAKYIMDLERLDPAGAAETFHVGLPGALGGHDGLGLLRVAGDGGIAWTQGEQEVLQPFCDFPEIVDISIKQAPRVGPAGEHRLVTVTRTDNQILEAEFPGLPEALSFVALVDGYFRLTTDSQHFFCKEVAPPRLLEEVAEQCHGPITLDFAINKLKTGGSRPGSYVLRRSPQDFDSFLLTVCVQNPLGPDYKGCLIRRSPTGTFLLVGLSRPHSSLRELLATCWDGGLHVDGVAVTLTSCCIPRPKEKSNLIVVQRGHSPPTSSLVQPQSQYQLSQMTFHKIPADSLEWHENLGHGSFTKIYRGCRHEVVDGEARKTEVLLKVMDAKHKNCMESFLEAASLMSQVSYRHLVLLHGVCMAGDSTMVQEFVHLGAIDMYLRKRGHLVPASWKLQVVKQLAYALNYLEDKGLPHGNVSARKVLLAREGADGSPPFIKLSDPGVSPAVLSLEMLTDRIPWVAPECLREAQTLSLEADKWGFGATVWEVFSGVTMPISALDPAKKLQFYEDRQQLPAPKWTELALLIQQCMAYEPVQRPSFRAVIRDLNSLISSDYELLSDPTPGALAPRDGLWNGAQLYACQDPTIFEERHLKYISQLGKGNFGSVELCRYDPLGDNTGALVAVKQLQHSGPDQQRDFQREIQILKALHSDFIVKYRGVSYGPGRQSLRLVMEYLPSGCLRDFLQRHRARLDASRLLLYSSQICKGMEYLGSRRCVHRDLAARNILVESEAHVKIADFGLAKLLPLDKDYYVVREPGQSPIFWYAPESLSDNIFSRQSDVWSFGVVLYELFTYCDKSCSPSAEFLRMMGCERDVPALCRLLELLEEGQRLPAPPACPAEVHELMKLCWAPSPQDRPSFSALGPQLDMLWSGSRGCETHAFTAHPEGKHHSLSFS
# How it was run: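 Human JAK3 at 1 nM phosphorylated 1 μM poly(Glu)4Tyr using 5 μM [33P]ATP in HEPES pH 7.4 buffer with MgCl2, DTT and BSA. Reactions ran 20 min at 25° C. and were stopped with TCA. 33P incorporation was measured by scintillation after glass-fiber filter capture.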
# [2] = biological target: JAK2 (Homo sapiens, UniProt O60674); assay: JAK2 inhibition assay (as Example 3 with JAK-2 enzyme)
# How it was run: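 Radiometric JAK2 kinase assay: poly(Glu)4Tyr substrate at final 15 μM, ATP at final 12 μM with [33P]; buffer 100 mM HEPES pH 7.4, 1 mM DTT, 10 mM MgCl2, 25 mM NaCl, 0.01% BSA. 20 min at 25 °C, TCA-stopped, 33P incorporation counted after filter capture.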
# [3] = biological target: ROCK I (Homo sapiens, UniProt Q13464); assay: ROCK-I inhibition assay (radioactive enzyme assay, MBP substrate)
# How it was run: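 Human ROCK at 5 nM phosphorylated 27 μM myelin basic protein with 13 μM [γ-33P]ATP (final) in HEPES pH 7.5, MgCl2, NaCl, DTT and 1.5% DMSO. Reactions ran 2 h at room temperature before TCA quench and filter-plate scintillation counting. After background subtraction, data were fit to give Ki(app).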
# Chain of ROCK I (Q13464 whole entry): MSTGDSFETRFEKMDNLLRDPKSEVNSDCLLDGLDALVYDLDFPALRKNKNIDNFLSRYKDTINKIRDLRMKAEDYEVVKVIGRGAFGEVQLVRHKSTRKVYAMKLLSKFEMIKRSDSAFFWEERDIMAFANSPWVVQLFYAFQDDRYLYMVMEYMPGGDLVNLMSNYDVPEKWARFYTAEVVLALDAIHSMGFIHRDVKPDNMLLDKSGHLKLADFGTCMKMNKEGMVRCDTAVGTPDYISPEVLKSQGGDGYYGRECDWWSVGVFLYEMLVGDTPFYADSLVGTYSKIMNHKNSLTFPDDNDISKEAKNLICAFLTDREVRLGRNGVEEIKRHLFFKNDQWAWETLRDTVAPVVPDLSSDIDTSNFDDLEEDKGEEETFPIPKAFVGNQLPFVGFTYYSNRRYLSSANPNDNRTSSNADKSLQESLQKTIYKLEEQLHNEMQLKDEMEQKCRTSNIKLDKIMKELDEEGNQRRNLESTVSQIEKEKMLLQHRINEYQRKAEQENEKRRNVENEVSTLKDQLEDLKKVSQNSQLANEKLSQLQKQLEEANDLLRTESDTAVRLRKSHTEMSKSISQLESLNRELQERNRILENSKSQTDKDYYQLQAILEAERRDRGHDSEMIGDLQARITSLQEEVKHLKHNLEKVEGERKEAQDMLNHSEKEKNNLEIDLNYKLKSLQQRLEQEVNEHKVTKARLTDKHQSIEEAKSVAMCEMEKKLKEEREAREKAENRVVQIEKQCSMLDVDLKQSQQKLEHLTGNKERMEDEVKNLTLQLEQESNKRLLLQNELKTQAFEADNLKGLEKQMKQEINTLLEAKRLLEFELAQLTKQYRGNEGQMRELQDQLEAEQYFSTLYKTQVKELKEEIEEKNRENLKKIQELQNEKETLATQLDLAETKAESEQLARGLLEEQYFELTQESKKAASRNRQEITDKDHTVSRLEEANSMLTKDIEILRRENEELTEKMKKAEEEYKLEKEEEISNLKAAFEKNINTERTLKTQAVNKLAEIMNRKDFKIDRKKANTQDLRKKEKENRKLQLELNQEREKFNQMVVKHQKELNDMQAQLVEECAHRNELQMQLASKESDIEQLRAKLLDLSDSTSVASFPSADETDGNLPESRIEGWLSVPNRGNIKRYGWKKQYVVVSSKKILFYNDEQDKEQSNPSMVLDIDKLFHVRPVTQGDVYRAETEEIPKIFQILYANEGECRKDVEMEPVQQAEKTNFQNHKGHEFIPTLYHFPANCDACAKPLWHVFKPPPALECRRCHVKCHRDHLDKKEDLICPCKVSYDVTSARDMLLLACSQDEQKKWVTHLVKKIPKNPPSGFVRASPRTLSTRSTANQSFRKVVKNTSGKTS
# Chain of JAK2 (O60674 whole entry): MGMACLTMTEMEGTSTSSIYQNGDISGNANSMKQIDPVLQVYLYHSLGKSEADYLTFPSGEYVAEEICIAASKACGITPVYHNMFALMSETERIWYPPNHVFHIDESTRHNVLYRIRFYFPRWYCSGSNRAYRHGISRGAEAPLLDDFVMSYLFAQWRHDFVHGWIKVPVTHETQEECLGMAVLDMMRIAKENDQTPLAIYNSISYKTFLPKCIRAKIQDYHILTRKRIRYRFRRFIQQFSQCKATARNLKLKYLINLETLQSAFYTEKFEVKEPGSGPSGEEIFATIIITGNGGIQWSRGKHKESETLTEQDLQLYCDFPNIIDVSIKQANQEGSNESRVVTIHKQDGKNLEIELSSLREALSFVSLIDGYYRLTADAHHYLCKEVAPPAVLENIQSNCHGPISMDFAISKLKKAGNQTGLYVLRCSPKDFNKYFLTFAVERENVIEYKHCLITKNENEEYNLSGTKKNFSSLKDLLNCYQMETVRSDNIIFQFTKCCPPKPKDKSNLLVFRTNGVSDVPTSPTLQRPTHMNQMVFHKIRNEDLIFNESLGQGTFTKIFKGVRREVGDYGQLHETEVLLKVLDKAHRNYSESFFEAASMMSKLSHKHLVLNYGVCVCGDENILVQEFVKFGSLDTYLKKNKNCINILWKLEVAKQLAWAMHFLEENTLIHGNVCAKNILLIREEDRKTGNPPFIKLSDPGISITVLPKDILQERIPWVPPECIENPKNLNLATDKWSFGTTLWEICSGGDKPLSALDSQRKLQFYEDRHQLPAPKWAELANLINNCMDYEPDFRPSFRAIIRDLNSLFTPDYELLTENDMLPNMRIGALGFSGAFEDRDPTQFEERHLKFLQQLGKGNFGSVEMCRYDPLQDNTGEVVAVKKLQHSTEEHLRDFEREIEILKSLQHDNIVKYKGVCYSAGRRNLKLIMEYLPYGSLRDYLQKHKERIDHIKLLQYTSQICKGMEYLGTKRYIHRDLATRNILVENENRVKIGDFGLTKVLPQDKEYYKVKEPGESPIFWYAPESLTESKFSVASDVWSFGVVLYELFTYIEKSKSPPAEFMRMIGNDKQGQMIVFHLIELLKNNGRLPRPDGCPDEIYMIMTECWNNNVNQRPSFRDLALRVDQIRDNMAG
SMILES,Ki [1],Ki [2],Ki [3]
CCN(Cc1ccccc1)C(=O)c1cc(-c2c(Cl)cnc3[nH]ccc23)c[nH]1 [compound 344],< 500 nM,< 500 nM,500 to 5000 nM
CCN(CCO)C(=O)c1cc(-c2c(Cl)cnc3[nH]ccc23)c[nH]1 [compound 345],< 500 nM,< 500 nM,500 to 5000 nM
O=C(c1cc(-c2c(Cl)cnc3[nH]ccc23)c[nH]1)N1CCC(CO)CC1 [compound 347],< 500 nM,< 500 nM,500 to 5000 nM
CCOC(=O)C1CCN(C(=O)c2cc(-c3c(Cl)cnc4[nH]ccc34)c[nH]2)CC1 [compound 348],500 to 5000 nM,500 to 5000 nM,> 4000 nM
CN(C)CCCN(C)C(=O)c1cc(-c2c(Cl)cnc3[nH]ccc23)c[nH]1 [compound 349],500 to 5000 nM,500 to 5000 nM,> 4000 nM
O=C(c1cc(-c2c(Cl)cnc3[nH]ccc23)c[nH]1)N1CCC(O)C1 (stereo not drawn) [compound 350],< 500 nM,< 500 nM,> 4000 nM
CN(CCc1ccccn1)C(=O)c1cc(-c2c(Cl)cnc3[nH]ccc23)c[nH]1 [compound 351],< 500 nM,< 500 nM,> 4000 nM
O=C(c1cc(-c2c(Cl)cnc3[nH]ccc23)c[nH]1)N1CCCC(O)C1 (stereo not drawn) [compound 356],< 500 nM,< 500 nM,500 to 5000 nM
N#CC1CCCN1C(=O)c1cc(-c2c(Cl)cnc3[nH]ccc23)c[nH]1 (stereo not drawn) [compound 357],< 500 nM,< 500 nM,500 to 5000 nM
O=C(c1cc(-c2c(Cl)cnc3[nH]ccc23)c[nH]1)N1CCCC1C(F)(F)F (stereo not drawn) [compound 358],< 500 nM,< 500 nM,500 to 5000 nM
CC1CCC(C)N1C(=O)c1cc(-c2c(Cl)cnc3[nH]ccc23)c[nH]1 (stereo not drawn) [compound 359],< 500 nM,< 500 nM,500 to 5000 nM
CN(CC(F)(F)F)C(=O)c1cc(-c2c(Cl)cnc3[nH]ccc23)c[nH]1 [compound 360],< 500 nM,< 500 nM,500 to 5000 nM
O=C(c1cc(-c2ccnc3[nH]ccc23)c[nH]1)N1CCCC1CO (stereo not drawn) [compound 362],500 to 5000 nM,< 500 nM,500 to 5000 nM
O=C(c1cc(-c2ccnc3[nH]ccc23)c[nH]1)N1CCC(CO)CC1 [compound 363],500 to 5000 nM,< 500 nM,500 to 5000 nM
CCOC(=O)C1CCN(C(=O)c2cc(-c3ccnc4[nH]ccc34)c[nH]2)CC1 [compound 364],500 to 5000 nM,500 to 5000 nM,500 to 5000 nM
CCN(Cc1ccncc1)C(=O)c1cc(-c2ccnc3[nH]ccc23)c[nH]1 [compound 369],< 500 nM,< 500 nM,< 500 nM
CN(Cc1cccnc1)C(=O)c1cc(-c2ccnc3[nH]ccc23)c[nH]1 [compound 370],< 500 nM,< 500 nM,< 500 nM
CC1CCC(C)N1C(=O)c1cc(-c2ccnc3[nH]ccc23)c[nH]1 (stereo not drawn) [compound 375],< 500 nM,< 500 nM,< 500 nM
NC(=O)c1ccccc1-c1ccnc2[nH]ccc12 [compound 380],> 5000 nM,> 5000 nM,> 4000 nM
C=CCN(CC=C)C(=O)c1cc(-c2c(F)cnc3[nH]ccc23)c[nH]1 [compound 383],< 500 nM,< 500 nM,500 to 5000 nM
N#CCCN(CCC(F)(F)F)C(=O)c1cc(-c2c(F)cnc3[nH]ccc23)c[nH]1 [compound 384],< 500 nM,< 500 nM,500 to 5000 nM
C=CCN(C(=O)c1cc(-c2c(F)cnc3[nH]ccc23)c[nH]1)C(C)c1ccccc1 (stereo not drawn) [compound 385],< 500 nM,< 500 nM,500 to 5000 nM
CCCN(CC(F)(F)F)C(=O)c1cc(-c2c(F)cnc3[nH]ccc23)c[nH]1 [compound 388],< 500 nM,< 500 nM,< 500 nM

# Continued, values first:
Ki [1],Ki [2],Ki [3],SMILES
< 500 nM,< 500 nM,500 to 5000 nM,N#CCCN(Cc1ccccc1)C(=O)c1cc(-c2c(Cl)cnc3[nH]ccc23)c[nH]1 [compound 343]
< 500 nM,< 500 nM,> 4000 nM,O=C(c1cc(-c2c(Cl)cnc3[nH]ccc23)c[nH]1)N1CCCC1CO (stereo not drawn) [compound 346]
< 500 nM,< 500 nM,> 4000 nM,NC(=O)C1CCCN1C(=O)c1cc(-c2c(Cl)cnc3[nH]ccc23)c[nH]1 (stereo not drawn) [compound 352]
< 500 nM,< 500 nM,500 to 5000 nM,CCN(Cc1ccncc1)C(=O)c1cc(-c2c(Cl)cnc3[nH]ccc23)c[nH]1 [compound 353]
< 500 nM,< 500 nM,500 to 5000 nM,CN(Cc1cccnc1)C(=O)c1cc(-c2c(Cl)cnc3[nH]ccc23)c[nH]1 [compound 354]
500 to 5000 nM,< 500 nM,> 4000 nM,CN(C)C1CCN(C(=O)c2cc(-c3c(Cl)cnc4[nH]ccc34)c[nH]2)C1 (stereo not drawn) [compound 355]
< 500 nM,< 500 nM,< 500 nM,CCN(CCO)C(=O)c1cc(-c2ccnc3[nH]ccc23)c[nH]1 [compound 361]
500 to 5000 nM,500 to 5000 nM,< 500 nM,CN(C)CCCN(C)C(=O)c1cc(-c2ccnc3[nH]ccc23)c[nH]1 [compound 365]
500 to 5000 nM,500 to 5000 nM,500 to 5000 nM,O=C(c1cc(-c2ccnc3[nH]ccc23)c[nH]1)N1CCC(O)C1 (stereo not drawn) [compound 366]
< 500 nM,< 500 nM,< 500 nM,CN(CCc1ccccn1)C(=O)c1cc(-c2ccnc3[nH]ccc23)c[nH]1 [compound 367]
< 500 nM,500 to 5000 nM,500 to 5000 nM,NC(=O)C1CCCN1C(=O)c1cc(-c2ccnc3[nH]ccc23)c[nH]1 (stereo not drawn) [compound 368]
500 to 5000 nM,500 to 5000 nM,500 to 5000 nM,CN(C)C1CCN(C(=O)c2cc(-c3ccnc4[nH]ccc34)c[nH]2)C1 (stereo not drawn) [compound 371]
500 to 5000 nM,500 to 5000 nM,500 to 5000 nM,O=C(c1cc(-c2ccnc3[nH]ccc23)c[nH]1)N1CCCC(O)C1 (stereo not drawn) [compound 372]
< 500 nM,< 500 nM,< 500 nM,N#CC1CCCN1C(=O)c1cc(-c2ccnc3[nH]ccc23)c[nH]1 (stereo not drawn) [compound 373]
< 500 nM,< 500 nM,< 500 nM,O=C(c1cc(-c2ccnc3[nH]ccc23)c[nH]1)N1CCCC1C(F)(F)F (stereo not drawn) [compound 374]
< 500 nM,< 500 nM,< 500 nM,CN(CC(F)(F)F)C(=O)c1cc(-c2ccnc3[nH]ccc23)c[nH]1 [compound 376]
500 to 5000 nM,500 to 5000 nM,< 500 nM,O=C(c1cc(-c2ccnc3[nH]ccc23)c[nH]1)N1CCC(O)C1 (stereo not drawn) [compound 377]
< 500 nM,< 500 nM,< 500 nM,CC(C)CC(=O)Nc1nc(-c2ccnc3[nH]ccc23)cs1 [compound 378]
< 500 nM,< 500 nM,< 500 nM,O=C(CC1CCCC1)Nc1nc(-c2ccnc3[nH]ccc23)cs1 [compound 379]
500 to 5000 nM,500 to 5000 nM,> 4000 nM,CNc1ccccc1-c1ccnc2[nH]ccc12 [compound 381]
< 500 nM,< 500 nM,500 to 5000 nM,Fc1cnc2[nH]ccc2c1-c1ccc(CN(CCC(F)(F)F)CC2CC2)o1 [compound 382]
< 500 nM,< 500 nM,500 to 5000 nM,CN(CCC#N)C(=O)c1cc(-c2c(F)cnc3[nH]ccc23)c[nH]1 [compound 386]
< 500 nM,< 500 nM,< 500 nM,O=C(c1cc(-c2c(F)cnc3[nH]ccc23)c[nH]1)N(CC1CC1)CC(F)(F)F [compound 387]
